Source: patent US20250313572A1, “MACROCYCLIC MCL-1 INHIBITORS AND METHODS OF USE” (AbbVie Inc., priority 2017, published 2025)
Like-named read-outs stand apart in the source and are kept apart here.

Key:
[1] = tested on: AMO-1 human multiple myeloma tumor cell line; test: AMO-1 cell viability assay (CellTiter-Glo, 24 hours); assay type: cell-based
[2] = target: GST-MCL-1 (Homo sapiens, UniProt Q07820); test: TR-FRET MCL-1 binding assay (competition with probe F-Bak)
In short: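 Test compounds, 11 three-fold dilutions from 25 μM final, incubated 2 hours at room temperature with GST-MCL-1, F-Bak probe and Tb-anti-GST antibody. TR-FRET read at 340/35 nm excitation with 520/525 and 495/510 nm emission. Run without human serum and with 10% HS.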

[3] = tested on: NCI-H929 human multiple myeloma tumor cell line; test: NCI-H929 cell viability assay (CellTiter-Glo, 24 hours); assay type: cell-based
[4] = MCL-1 Binding Ki (nM, 10% HS), in the presence of 10% HS (human serum)
[5] = without HS, read-out: MCL-1 Binding Ki
[6] = Homo sapiens, AMO1, 24 h, read-out: AMO-1 Viability IC50 (μM, 10% FBS), 10% FBS, 24 hours of compound treatment
[7] = Homo sapiens, NCI-H929, 24 h, read-out: H929 Viability IC50 (μM, 10% FBS), 10% FBS, 24 hours of compound treatment

Chain of GST-MCL-1 (Q07820 whole entry): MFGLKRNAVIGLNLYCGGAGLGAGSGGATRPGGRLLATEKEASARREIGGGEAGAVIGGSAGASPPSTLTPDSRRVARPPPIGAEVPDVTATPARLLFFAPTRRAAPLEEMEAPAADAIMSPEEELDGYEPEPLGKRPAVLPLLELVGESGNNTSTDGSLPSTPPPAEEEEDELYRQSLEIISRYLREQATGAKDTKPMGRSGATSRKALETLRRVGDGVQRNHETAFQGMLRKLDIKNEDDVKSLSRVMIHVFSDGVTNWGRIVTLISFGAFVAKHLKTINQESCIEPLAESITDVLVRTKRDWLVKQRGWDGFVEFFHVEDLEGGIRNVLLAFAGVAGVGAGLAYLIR

| SMILES | IC50 ([1]; read-out: AMO-1 Viability IC50 (μM, 10% FBS), 10% FBS, 24 hours of compound treatment) [µM] | Ki [2, 4] [nM] | Ki [2, 5] [nM] | IC50 ([3]; read-out: H929 Viability IC50 (μM, 10% FBS), 10% FBS, 24 hours of compound treatment) [µM] | IC50 [1, 6] [µM] | IC50 [3, 7] [µM] |
| --- | --- | --- | --- | --- | --- | --- |
| COCCOCCOCCOCCOCCOCC1(C)CC=C(c2nccc(COc3ccc4cc3C[C@H](C(=O)O)Oc3ncnc5sc(-c6ccc(F)cc6)c(c35)-c3c(C)c(Cl)c(c(Cl)c3C)O[C@H](CN3CCN(C)CC3)CO4)n2)CC1 (single isomer, unassigned) [Example 85, (7R,16R)-19,23-dichloro-1-(4-fluorophenyl)-10-({2-[(4S*)-4-(2,5,8,11,14,17-hexaoxaoctadecan-1-yl)-4-methylcyclohex-1-en-1-yl]pyrimidin-4-yl}methoxy)-20,22-dimethyl-16-[(4-methylpiperazin-1-yl)methyl]-7,8,15,16-tetrahydro-18,21-etheno-13,9-(metheno)-6,14,17-trioxa-2-thia-3,5-diazacyclononadeca[1,2,3-cd]indene-7-carboxylic Acid] | 0.000198 | 0.191 | 0.029 | 0.000485 | – | – |
| COC1CC2(C1)CN(c1nccc(COc3ccc4cc3C[C@H](C(=O)O)Oc3ncnc5sc(-c6ccc(F)cc6)c(c35)-c3c(C)c(Cl)c(c(Cl)c3C)O[C@H](CN3CCN(C)CC3)CO4)n1)C2 [Example 79, (7R,16R)-19,23-dichloro-1-(4-fluorophenyl)-10-{[2-(6-methoxy-2-azaspiro[3,3]heptan-2-yl)pyrimidin-4-yl]methoxy}-20,22-dimethyl-16-[(4-methylpiperazin-1-yl)methyl]-7,8,15,16-tetrahydro-18,21-etheno-9,13-(metheno)-6,14,17-trioxa-2-thia-3,5-diazacyclononadeca[1,2,3-cd]indene-7-carboxylic Acid] | – | 1 | 0.088 | – | 0.000418 | 0.00163 |
| Cc1c(Cl)c2c(Cl)c(C)c1-c1c(-c3ccc(F)cc3)sc3ncnc(c13)O[C@@H](C(=O)O)Cc1cc(ccc1OCc1ccnc(C3CCS(=O)(=O)CC3)n1)OC[C@@H](CN1CCN(C)CC1)O2 [Example 40, (7R,16R)-19,23-dichloro-10-{[2-(1,1-dioxo-1λ^6-thian-4-yl)pyrimidin-4-yl]methoxy}-1-(4-fluorophenyl)-20,22-dimethyl-16-[(4-methylpiperazin-1-yl)methyl]-7,8,15,16-tetrahydro-18,21-etheno-13,9-(metheno)-6,14,17-trioxa-2-thia-3,5-diazacyclononadeca[1,2,3-cd]indene-7-carboxylic Acid] | – | 0.085 | 0.018 | – | 0.003 | 0.00474 |
| CO[C@H]1O[C@H](COc2cccc(-c3nccc(COc4ccc5cc4C[C@H](C(=O)O)Oc4ncnc6sc(-c7ccc(F)cc7)c(c46)-c4ccc(c(Cl)c4C)O[C@H](CN4CCN(C)CC4)CO5)n3)c2)[C@@H](OC)[C@H](OC)[C@@H]1OC [Example 7, methyl 6-O-{3-[4-({[(7R,16R,21S)-7-carboxy-19-chloro-1-(4-fluorophenyl)-20-methyl-16-[(4-methylpiperazin-1-yl)methyl]-7,8,15,16-tetrahydro-18,21-etheno-13,9-(metheno)-6,14,17-trioxa-2-thia-3,5-diazacyclononadeca[1,2,3-cd]inden-10-yl]oxy}methyl)pyrimidin-2-yl]phenyl}-2,3,4-tri-O-methyl-a-D-mannopyranoside] | – | 0.599 | 0.054 | – | 0.007 | 0.011 |
| CO[C@@H]1CO[C@H]2[C@@H]1OC[C@H]2OCCOc1ccc(-c2nccc(COc3ccc4cc3C[C@H](C(=O)O)Oc3ncnc5sc(-c6ccc(F)cc6)c(c35)-c3c(C)c(Cl)c(c(Cl)c3C)O[C@H](CN3CCN(C)CC3)CO4)n2)cc1 [Example 154, (7R,16R)-19,23-dichloro-1-(4-fluorophenyl)-10-({2-[4-(2-{[(3R,3aR,6R,6aR)-6-methoxyhexahydrofuro[3,2-b]furan-3-yl]oxy}ethoxy)phenyl]pyrimidin-4-yl}methoxy)-20,22-dimethyl-16-[(4-methylpiperazin-1-yl)methyl]-7,8,15,16-tetrahydro-18,21-etheno-13,9-(metheno)-6,14,17-trioxa-2-thia-3,5-diazacyclononadeca[1,2,3-cd]indene-7-carboxylic Acid] | – | 0.191 | 0.018 | – | 0.000698 | 0.000643 |
| COCCOCCOCCOCCO[C@H]1CC[C@H](c2nccc(COc3ccc4cc3C[C@H](C(=O)O)Oc3ncnc5sc(-c6ccc(F)cc6)c(c35)-c3c(C)c(Cl)c(c(Cl)c3C)O[C@H](CN3CCN(C)CC3)CO4)n2)CC1 [Example 69, (7R,16R)-19,23-dichloro-1-(4-fluorophenyl)-20,22-dimethyl-16-[(4-methylpiperazin-1-yl)methyl]-10-[(2-{(1r,4r)-4-[(2,5,8,11-tetraoxatridecan-13-yl)oxy]cyclohexyl}pyrimidin-4-yl)methoxy]-7,8,15,16-tetrahydro-18,21-etheno-13,9-(metheno)-6,14,17-trioxa-2-thia-3,5-diazacyclononadeca[1,2,3-cd]indene-7-carboxylic Acid] | – | 0.053 | 0.012 | – | 0.000302 | 0.000615 |
| COCCOCCOC[C@]1(F)CC[C@@H](c2nccc(COc3ccc4cc3C[C@H](C(=O)O)Oc3ncnc5sc(-c6ccc(F)cc6)c(c35)-c3c(C)c(Cl)c(c(Cl)c3C)O[C@H](CN3CCN(C)CC3)CO4)n2)CC1 [Example 96, (7R,16R)-19,23-dichloro-10-({2-[(1s,4s)-4-fluoro-4-{[2-(2-methoxyethoxy)ethoxy]methyl}cyclohexyl]pyrimidin-4-yl}methoxy)-1-(4-fluorophenyl)-20,22-dimethyl-16-[(4-methylpiperazin-1-yl)methyl]-7,8,15,16-tetrahydro-18,21-etheno-13,9-(metheno)-6,14,17-trioxa-2-thia-3,5-diazacyclononadeca[1,2,3-cd]indene-7-carboxylic Acid] | – | 0.037 | 0.003 | – | 0.000287 | 0.000259 |
| Cc1c(Cl)c2c(Cl)c(C)c1-c1c(-c3ccc(F)cc3)sc3ncnc(c13)O[C@@H](C(=O)O)Cc1cc(ccc1OCc1ccnc(-c3ccc(S(=O)(=O)N4CCOCC4)cc3)n1)OC[C@@H](CN1CCN(C)CC1)O2 [Example 145, (7R,16R)-19,23-dichloro-1-(4-fluorophenyl)-20,22-dimethyl-16-[(4-methylpiperazin-1-yl)methyl]-10-({2-[4-(morpholine-4-sulfonyl)phenyl]pyrimidin-4-yl}methoxy)-7,8,15,16-tetrahydro-18,21-etheno-13,9-(metheno)-6,14,17-trioxa-2-thia-3,5-diazacyclononadeca[1,2,3-cd]indene-7-carboxylic Acid] | – | 0.399 | 0.081 | – | 0.000407 | 0.000973 |
| CO[C@H]1O[C@H](COc2ccc(-c3nccc(COc4ccc5cc4C[C@H](C(=O)O)Oc4ncnc6sc(-c7ccc(F)cc7)c(c46)-c4ccc(c(Cl)c4C)CN(CCN4CCN(C)CC4)C5)n3)cc2)[C@@H](O)[C@H](O)[C@@H]1O [Example 10, methyl 6-O-{4-[4-({[(7R,20S)-7-carboxy-18-chloro-1-(4-fluorophenyl)-19-methyl-15-[2-(4-methylpiperazin-1-yl)ethyl]-7,8,15,16-tetrahydro-14H-17,20-etheno-13,9-(metheno)-6-oxa-2-thia-3,5,15-triazacyclooctadeca[1,2,3-cd]inden-10-yl]oxy}methyl)pyrimidin-2-yl]phenyl}-a-D-mannopyranoside] | – | 0.494 | 0.06 | – | > 1 | > 1 |
| COCCOCCOCCOCCOCCO[C@H]1CC[C@H](c2nccc(COc3ccc4cc3C[C@H](C(=O)O)Oc3ncnc5sc(-c6ccc(F)cc6)c(c35)-c3c(C)c(Cl)c(c(Cl)c3C)O[C@H](CN3CCN(C)CC3)CO4)n2)CC1 [Example 66, (7R,16R)-19,23-dichloro-1-(4-fluorophenyl)-20,22-dimethyl-16-[(4-methylpiperazin-1-yl)methyl]-10-[(2-{(1r,4r)-4-[(2,5,8,11,14-pentaoxahexadecan-16-yl)oxy]cyclohexyl}pyrimidin-4-yl)methoxy]-7,8,15,16-tetrahydro-18,21-etheno-13,9-(metheno)-6,14,17-trioxa-2-thia-3,5-diazacyclononadeca[1,2,3-cd]indene-7-carboxylic Acid] | – | 0.119 | 0.015 | – | 0.000876 | 0.00121 |
| Cc1c(Cl)c2c(Cl)c(C)c1-c1c(-c3ccc(F)cc3)sc3ncnc(c13)O[C@@H](C(=O)O)Cc1cc(ccc1OCc1ccnc(-c3ccc(OCC4COCCOCCOCCOCCOCCO4)cc3)n1)OC[C@@H](CN1CCN(C)CC1)O2 (stereo partly drawn) [Example 123, (7R,16R)-19,23-dichloro-1-(4-fluorophenyl)-10-[(2-{4-[(1,4,7,10,13,16-hexaoxacyclooctadecan-2-yl)methoxy]phenyl}pyrimidin-4-yl)methoxy]-20,22-dimethyl-16-[(4-methylpiperazin-1-yl)methyl]-7,8,15,16-tetrahydro-18,21-etheno-13,9-(metheno)-6,14,17-trioxa-2-thia-3,5-diazacyclononadeca[1,2,3-cd]indene-7-carboxylic Acid] | – | 0.051 | 0.003 | – | 0.00128 | 0.00467 |
